For data set [1], the system named is Mus musculus. Put plainly: Antiobesity activity in lean normal BALB/c mouse assessed as change in average daily weight at equimolar dose of 0.5 mmol/kg galegine administered daily through diet for 7 days. The data set is classed as functional, organism-based.
Data set [2] relates to Mus musculus. Put plainly: Antiobesity activity in lean normal BALB/c mouse assessed as change in average daily food intake at equimolar dose of 0.5 mmol/kg galegine administered daily through diet for 7 days. The data set is classed as functional, organism-based.
Data set [3] has as its system Mus musculus. The data set is described as follows: Hypoglycemic activity in lean normal BALB/c mouse assessed as blood glucose level at equimolar dose of 0.5 mmol/kg galegine administered daily through diet for 7 days. The data set is classed as functional, organism-based.
In data set [4] the test system is Mus musculus. Put plainly: Antidiabetic activity in lean normal BALB/c mouse assessed as effect on blood lactate level at equimolar dose of 0.5 mmol/kg galegine administered daily through diet for 7 days. The data set is classed as functional, organism-based.
The test system of data set [5] is Mus musculus. The data set is described as follows: Hypoglycemic activity in lean normal BALB/c mouse assessed as blood glucose level at 0.51 mmol/kg/day administered through diet for 7 days relative to time-matched control. Format: functional.
Data set [6] relates to Mus musculus. The data set is described as follows: Antiobesity activity in lean normal BALB/c mouse assessed as change in average daily food intake at 0.51 mmol/kg/day administered through diet for 7 days relative to time-matched control. The data set is classed as functional.
The test system of data set [7] is Mus musculus. Put plainly: Antiobesity activity in lean normal BALB/c mouse assessed as change in average daily weight at 0.51 mmol/kg/day administered through diet for 7 days relative to time-matched control. The data set is classed as functional.
Data set [8] concerns Mus musculus. The data set is described as follows: Toxicity in lean normal BALB/c mouse assessed as overt signs of behavioural changes at equimolar dose of 0.5 mmol/kg galegine administered daily through diet for 7 days. Format: organism-based. The following applies: in vivo, po, 168 h.
Data set [9] deals with Mus musculus. Put plainly: Antiobesity activity in lean normal BALB/c mouse assessed as change in average daily food intake at 0.70 mmol/kg/day administered through diet for 7 days relative to time-matched control. Format: functional.
Data set [10] relates to Mus musculus. Put plainly: Hypoglycemic activity in lean normal BALB/c mouse assessed as blood glucose level at 0.70 mmol/kg/day administered through diet for 7 days relative to time-matched control. Format: functional.
Data set [11] deals with Mus musculus. Put plainly: Antiobesity activity in lean normal BALB/c mouse assessed as change in average daily weight at 0.70 mmol/kg/day administered through diet for 7 days relative to time-matched control. Format: functional.
Data set [12] deals with Mus musculus. Put plainly: Hypoglycemic activity in lean normal BALB/c mouse assessed as blood glucose level at 0.5 mmol/kg/day administered through diet for 7 days relative to time-matched control. The data set is classed as functional.
The subject of data set [13] is Mus musculus. Put plainly: Antiobesity activity in lean normal BALB/c mouse assessed as change in average daily food intake at 0.5 mmol/kg/day administered through diet for 7 days relative to time-matched control. Format: functional.
The subject of data set [14] is Mus musculus. Put plainly: Antiobesity activity in lean normal BALB/c mouse assessed as change in average daily weight at 0.5 mmol/kg/day administered through diet for 7 days relative to time-matched control. Format: functional.
Data set [15] deals with Mus musculus. Put plainly: Antiobesity activity in lean normal BALB/c mouse assessed as change in average daily food intake at 0.60 mmol/kg/day administered through diet for 7 days relative to time-matched control. Format: functional.
Data set [16] deals with Mus musculus. Put plainly: Antiobesity activity in lean normal BALB/c mouse assessed as change in average daily weight at 0.60 mmol/kg/day administered through diet for 7 days relative to time-matched control. The data set is classed as functional.
In data set [17] the test system is Mus musculus. Put plainly: Antiobesity activity in lean normal BALB/c mouse assessed as change in average daily food intake at 0.62 mmol/kg/day administered through diet for 7 days relative to time-matched control. The data set is classed as functional.
The subject of data set [18] is Mus musculus. The data set is described as follows: Antiobesity activity in lean normal BALB/c mouse assessed as change in average daily weight at 0.62 mmol/kg/day administered through diet for 7 days relative to time-matched control. Format: functional.
A short description of data set [19]: Metabolic stability in ob/ob mouse liver microsomes assessed as oxidative hydroxylation at 50 uM after 45 mins by HPLC-MS analysis. The data set is classed as ADME, Microsome. The following applies: 0.75 h. On the technique in general: Liver microsomes are vesicles of endoplasmic reticulum, rich in cytochrome P450 enzymes.
The subject of data set [20] is Mus musculus. The data set is described as follows: Antiobesity activity in lean normal BALB/c mouse assessed as change in average daily food intake at 0.57 mmol/kg/day administered through diet for 7 days relative to time-matched control. Format: functional.
Data set [21] deals with Mus musculus. Put plainly: Hypoglycemic activity in lean normal BALB/c mouse assessed as blood glucose level at 0.57 mmol/kg/day administered through diet for 7 days relative to time-matched control. Format: functional.
In data set [22] the test system is Mus musculus. Put plainly: Antiobesity activity in lean normal BALB/c mouse assessed as change in average daily weight at 0.57 mmol/kg/day administered through diet for 7 days relative to time-matched control. Format: functional.

Active and inactive are the calls of the source. The calls are words filed in the database; no cut-off is given here.

In the case of `COc1ccc(CNC(=N)N)cc1`, the outcome in the data set with Mus musculus [1], with Mus musculus [2], in the data set on Mus musculus [3] and in the data set on Mus musculus [4] was inactive.
With `Cc1ccc(CNC(=N)N)cc1`, the result in the data set on Mus musculus [1], in the data set on Mus musculus [2], with Mus musculus [3] and in the data set on Mus musculus [4] was inactive.
Consider `N=C(N)NCc1ccccc1Br`, for which the Activity with Mus musculus [5] was 84%; in the data set with Mus musculus [6], -17.7%; in the data set on Mus musculus [7], -6%; with Mus musculus [8], “Non-toxic”.
Take `COc1ccc(OC)c(CNC(=N)N)c1`: the outcome with Mus musculus [1], in the data set with Mus musculus [2], in the data set on Mus musculus [3] and with Mus musculus [4] was inactive.
On to `COc1ccc(CNC(=N)N)c(OC)c1OC`, for which the result in the data set with Mus musculus [1], with Mus musculus [2], with Mus musculus [3] and in the data set on Mus musculus [4] was inactive.
Regarding `COc1cccc(CNC(=N)N)c1OC`, the result in the data set on Mus musculus [1], in the data set with Mus musculus [2], in the data set with Mus musculus [3] and in the data set with Mus musculus [4] was inactive.
As for `COc1ccc(CNC(=N)N)c(OC)c1`, the result in the data set with Mus musculus [1], with Mus musculus [2], in the data set on Mus musculus [3] and in the data set with Mus musculus [4] was inactive.
Turning to `CC(C)CCNC(=N)N`, the result in the data set on Mus musculus [1], with Mus musculus [2], with Mus musculus [3] and in the data set with Mus musculus [4] was inactive.
As to `N=C(N)NCc1ccc(C(F)(F)F)cc1`, the Activity with Mus musculus [9] was -12.7%; with Mus musculus [10] it was 75%; in the data set with Mus musculus [11], -10.6%; in the data set with Mus musculus [8] it was “Non-toxic”.
For the molecule `N=C(N)NCc1ccccn1`, the result in the data set on Mus musculus [1], in the data set with Mus musculus [2], in the data set with Mus musculus [3] and with Mus musculus [4] was inactive.
`CC(C)=CCNc1ncccn1`: the outcome in the data set with Mus musculus [1], in the data set on Mus musculus [2], in the data set on Mus musculus [3] and in the data set on Mus musculus [4] was inactive.
Regarding `N=C(N)NCC1CCCCC1`, the outcome with Mus musculus [1], with Mus musculus [2], with Mus musculus [3] and in the data set on Mus musculus [4] was inactive.
As to `CC(C)=CCNc1ccccn1`, the result in the data set on Mus musculus [1], in the data set with Mus musculus [2], in the data set with Mus musculus [3] and in the data set with Mus musculus [4] was inactive.
For `N=C(N)NCc1ccccc1C(F)(F)F`, the outcome in the data set on Mus musculus [1], in the data set on Mus musculus [2], in the data set with Mus musculus [3] and in the data set on Mus musculus [4] was inactive.
`Cc1ccccc1CNC(=N)N`: the outcome in the data set with Mus musculus [1], with Mus musculus [2], in the data set on Mus musculus [3] and in the data set with Mus musculus [4] was inactive.
With `CSCCNC(=N)N`, the result with Mus musculus [1], in the data set with Mus musculus [2], with Mus musculus [3] and in the data set with Mus musculus [4] was inactive.
For `N=C(N)NCc1c(F)cccc1Cl`, the outcome in the data set with Mus musculus [1], in the data set on Mus musculus [2], in the data set with Mus musculus [3] and in the data set on Mus musculus [4] was inactive.
In the case of `N=C(N)N1CCc2ccccc2C1`, the result in the data set with Mus musculus [1], with Mus musculus [2], in the data set with Mus musculus [3] and with Mus musculus [4] was inactive.
Regarding `CC(C)=CCNC=N`, the result with Mus musculus [12], in the data set with Mus musculus [13] and in the data set with Mus musculus [14] was inactive.
As for `CSCCCNC(=N)N`, the outcome with Mus musculus [1], in the data set on Mus musculus [2], with Mus musculus [3] and with Mus musculus [4] was inactive.
In the case of `COc1ccccc1CNC(=N)N`, the Activity with Mus musculus [15] is recorded as -4.1%; with Mus musculus [16], -7%; in the data set with Mus musculus [8], “Non-toxic”.
As for `CCOc1ccc(CNC(=N)N)cc1`, the result in the data set on Mus musculus [1], in the data set with Mus musculus [2], in the data set with Mus musculus [3] and in the data set on Mus musculus [4] was inactive.
As to `N=C(N)NCCCCNC(=N)N`, the outcome with Mus musculus [1], in the data set with Mus musculus [2], in the data set with Mus musculus [3] and with Mus musculus [4] was inactive.
Consider `COc1cccc(CNC(=N)N)c1`, for which the outcome in the data set with Mus musculus [1], in the data set on Mus musculus [2], in the data set with Mus musculus [3] and in the data set on Mus musculus [4] was inactive.
For `C=CCNC(=N)N`, the outcome with Mus musculus [1], in the data set on Mus musculus [2], with Mus musculus [3] and with Mus musculus [4] was inactive.
Consider `N=C(N)NCC1CCCO1` (centres undefined), for which the result in the data set on Mus musculus [1], in the data set with Mus musculus [2], in the data set with Mus musculus [3] and in the data set with Mus musculus [4] was inactive.
Consider `[H]/N=C(/N)N/C(=N/[H])NCCc1ccccc1` [PHENFORMIN], for which the Activity with Mus musculus [17] is -3.4%; with Mus musculus [18] it was -0.14%; in the data set with Mus musculus [8], “Non-toxic”; in [19], “Unstable”.
`NC(N)=NCc1ccc2c(c1)OCO2`: the Activity with Mus musculus [15] was -18%; in the data set on Mus musculus [16], -2%; with Mus musculus [8], “Non-toxic”.
`N=C(N)NCc1ccccc1Cl`: the Activity in the data set with Mus musculus [20] is reported as -21.1%; in the data set on Mus musculus [21], 82%; in the data set on Mus musculus [22], -10.7%; in the data set on Mus musculus [8], “Non-toxic”.
For `N=C(N)NCc1ccc(O)cc1`, the result with Mus musculus [1], in the data set with Mus musculus [2], in the data set on Mus musculus [3] and in the data set with Mus musculus [4] was inactive.
As to `CC(C)=CCNC(=N)NC#N`, the result in the data set with Mus musculus [1], in the data set on Mus musculus [2], in the data set with Mus musculus [3] and in the data set on Mus musculus [4] was inactive.
For the molecule `COc1ccc(CNC(=N)N)cc1OC`, the outcome in the data set on Mus musculus [1], with Mus musculus [2], in the data set on Mus musculus [3] and in the data set with Mus musculus [4] was inactive.
With `CC(C)=CCNC1=NCCN1`, the outcome in the data set on Mus musculus [1], in the data set with Mus musculus [2], in the data set on Mus musculus [3] and with Mus musculus [4] was inactive.

(Values after ChEMBL document CHEMBL1136921, “Benzylguanidines and other galegine analogues inducing weight loss in mice” (J Med Chem, 2009).)
